Measured values: US11040028B2, “Penicinotam derivative, preparation method and use thereof” (OCEAN UNIVERSITY OF CHINA, priority 2017, dated 2021)

What was measured:
Assay type in all cases: cell-based
BHK-21 cells = assay: Anti-fibrosis activity test: inhibition of BHK-21 cell proliferation (CCK-8); details: Mesocricetus auratus, BHK-21, 48 h
Outline: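 Read-out: CCK-8 absorbance at 450 nm after 2 h, giving proliferation inhibition (1−Ai/Ao)×100% versus blank control, from which IC50 was derived. Cells had been treated with compounds for 48 h after 24 h adherence at 37° C. Pirfenidone served as positive control.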

[1] = tested on: human lung fibroblasts HFL1; assay: Anti-fibrosis activity test: inhibition of proliferation of human lung fibroblasts HFL1 (CCK-8); details: Homo sapiens, HFL1, 48 h
Outline: (§1)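 Cells were seeded at 2×10^4 cells/mL and allowed to adhere for 24 h at 37° C, 5% CO2, then exposed to graded compound concentrations in triplicate for 48 h. CCK-8 was added for 2 h, A450 was read, and IC50 was derived from inhibition rate = (1−Ai/Ao)×100%.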

[2] = tested on: human hepatic stellate cells LX-2; assay: Anti-fibrosis activity test: inhibition of proliferation of human hepatic stellate cells LX-2 (CCK-8); details: Homo sapiens, 48 h
Outline: as §1

NF-κB = assay: Immunological activity test: inhibition of NF-κB activity; details: initial concentration of 30 μM; a/b isomers given as first/second symbol; read-out: IC50 (μM), inhibitory activity against NF-κB
Text: Main references for immunological activity test of the compounds of the present application includes: Vogl, S.; Atanasov, A. G.; Binder, M.; Bulusu, M.; Zehl, M.; Fakhrudin, N.; Heiss, E. H.; Picker, P.; Wawrosch, C.; Saukel, J.; Reznicek, G.; Urban, E.; Bochkov, V.; Dirsch, V. M.; Kopp, B. J. Evid-Based Complementary Alern. Med. 2013, ID 395316. Commercially available parthenolide was utilized as a positive control.
The ability of the compounds of the present application to inhibit NF-κB activity was tested at an initial concentration of 30 μM.
The assay data for the compounds of the present application were further analyzed to determine their IC50 values.

[3] = tested on: human embryonic lung fibroblast IMR-90; assay: Anti-fibrosis activity test: inhibition of proliferation of human embryonic lung fibroblast IMR-90 (CCK-8)
Outline: as §1

[4] = tested on: human fibrosarcoma cells HT-1080; assay: Anti-fibrosis activity test: inhibition of proliferation of human fibrosarcoma cells HT-1080 (CCK-8); details: Homo sapiens, HT-1080, 48 h
Outline: as §1

[5] = tested on: human dermal fibroblasts CCC-ESF-1; assay: Anti-fibrosis activity test: inhibition of proliferation of human dermal fibroblasts CCC-ESF-1 (CCK-8); details: Fibroblast
Outline: as §1

[6] = tested on: cardiac fibroblast RAT-iCell-C002; assay: Anti-fibrosis activity test: inhibition of proliferation of cardiac fibroblast RAT-iCell-C002 (CCK-8); details: Cardiac fibroblast, 48 h
Outline: as §1

[7] = CCK-8, 48 hours after administration
[8] = human lung fibroblasts HFL1, CCK-8, 48 hours
[9] = human hepatic stellate cells LX-2, CCK-8, 48 hours
[10] = human embryonic lung fibroblast IMR-90, CCK-8, 48 hours
[11] = human fibrosarcoma cells HT-1080, CCK-8, 48 hours
[12] = human dermal fibroblasts CCC-ESF-1, CCK-8, 48 hours
[13] = cardiac fibroblast RAT-iCell-C002, CCK-8, 48 hours

| Structure (SMILES) | IC50 (BHK-21 cells; [7]) [mM] | IC50 [1, 8] [mM] | IC50 [2, 9] [mM] | IC50 (NF-κB) [µM] | IC50 [3, 10] [mM] | IC50 [4, 11] [mM] | IC50 [5, 12] [mM] | IC50 [6, 13] [mM] | IC50 (BHK-21 cells; 48 h, CCK-8) [mM] | IC50 ([1]; HFL1 cells, 48 h, CCK-8) [mM] | IC50 ([2]; LX-2, 48 h, LX-2 cells, CCK-8) [mM] | IC50 ([3]; Homo sapiens, IMR-90 cells, 48 h, CCK-8) [mM] | IC50 ([4]; HT-1080 cells, 48 h, CCK-8) [mM] | IC50 ([5]; Homo sapiens, CCC-ESF-1 cells, 48 h, CCK-8) [mM] | IC50 ([6]; RAT-iCell-C002 cells, CCK-8) [mM] |
| --- | --- | --- | --- | --- | --- | --- | --- | --- | --- | --- | --- | --- | --- | --- | --- |
| O=C1c2c(nc3ccccc3c2Oc2ccc(F)cc2)-c2cccn21 [Compound 18b, 9-(4-fluorophenoxy)-10H-pyrrolizino[1,2-b]quinolin-10-one] | 0.05 to 5 | 0.05 to 5 | 0.05 to 5 | 1 to 10 | 0.05 to 5 | 0.05 to 5 | 0.05 to 5 | 0.05 to 5 | – | – | – | – | – | – | – |
| N#Cc1ccc2c(OCc3ccccc3F)c3c(nc2c1)-c1cccn1C3=O [Compound 516b, 9-((2-fluorobenzyl)oxy)-10-oxo-10H-pyrrolizino[1,2-b]quinoline-6-carbonitrile] | 0.05 to 5 | 0.05 to 5 | 0.05 to 5 | 0.1 to 1 | 0.05 to 5 | 0.05 to 5 | 0.05 to 5 | 0.05 to 5 | – | – | – | – | – | – | – |
| Cc1ccc2c(O)c3c(nc2c1)-c1cccn1C3=O [Compound 714b, 9-hydroxy-6-methyl-10H-pyrrolizino[1,2-b]quinolin-10-one] | – | – | – | 0.001 to 0.1 | – | – | – | – | 0.05 to 5 | 0.05 to 5 | 0.05 to 5 | 0.05 to 5 | 0.05 to 5 | 0.05 to 5 | 0.05 to 5 |
| O=C1c2c(nc3cc(C(F)(F)F)ccc3c2OCc2ccccc2Cl)-c2cccn21 [Compound 546b, 9-((2-chlorobenzyl)oxy)-6-(trifluoromethyl)-10H-pyrrolizino[1,2-b]quinolin-10-one] | 0.05 to 5 | 0.05 to 5 | 0.05 to 5 | 0.1 to 1 | 0.05 to 5 | 0.05 to 5 | 0.05 to 5 | 0.05 to 5 | – | – | – | – | – | – | – |
| O=C1c2c(n(Cc3ccc(F)cc3F)c3cc(N4CCNCC4)ccc3c2=O)-c2cccn21 [Compound 622a, 4-(2,4-Difluorobenzyl)-6-(piperazin-1-yl)-9H-pyrrolizino[1,2-b]quinoline-9,10(4H)-dione] | 0.05 to 5 | 0.05 to 5 | – | 1 to 10 | 0.05 to 5 | 0.05 to 5 | 0.05 to 5 | 0.05 to 5 | – | – | – | – | – | – | – |
| N#Cc1ccc2nc3c(c(OCc4ccc(Cl)cc4)c2c1)C(=O)n1cccc1-3 [Compound 625b, 9-((4-chlorobenzyl)oxy)-10-oxo-10H-pyrrolizino[1,2-b]quinoline-7-carbonitrile] | 0.05 to 5 | 0.05 to 5 | 0.05 to 5 | 1 to 10 | 0.05 to 5 | 0.05 to 5 | 0.05 to 5 | 0.05 to 5 | – | – | – | – | – | – | – |
| CC(C)Oc1c2c(nc3ccccc13)-c1cccn1C2=O [Compound 5b, 9-isopropoxy-10H-pyrrolizino[1,2-b]quinolin-10-one] | 0.05 to 5 | 0.05 to 5 | 5 to 20 | 10 to 50 | 0.05 to 5 | 5 to 20 | 0.05 to 5 | 0.05 to 5 | – | – | – | – | – | – | – |
| N#Cc1ccc2c(c1)c(=O)c1c(n2Cc2ccc(-c3ccccc3)cc2)-c2cccn2C1=O [Compound 628a, 4-([1,1′-Biphenyl]-4-ylmethyl)-9,10-dioxo-4,10-dihydro-9H-pyrrolizino[1,2-b]quinoline-7-carbonitrile] | 0.05 to 5 | 5 to 20 | 0.05 to 5 | 1 to 10 | 0.05 to 5 | 0.05 to 5 | 0.05 to 5 | 0.05 to 5 | – | – | – | – | – | – | – |
| O=C1c2c(n(Cc3ccc(F)cc3)c3ccc(F)cc3c2=O)-c2cccn21 [Compound 617a, 7-Fluoro-4-(4-fluorobenzyl)-9H-pyrrolizino[1,2-b]quinoline-9,10(4H)-dione] | < 0.05 | 0.05 to 5 | 0.05 to 5 | 0.1 to 1 | 0.05 to 5 | 0.05 to 5 | 0.05 to 5 | 0.05 to 5 | – | – | – | – | – | – | – |
| N#Cc1ccc2c(c1)c(=O)c1c(n2Cc2ccc(C(F)(F)F)cc2)-c2cccn2C1=O [Compound 627a, 9,10-Dioxo-4-(4-(trifluoromethyl)benzyl)-4,10-dihydro-9H-pyrrolizino[1,2-b]quinoline-7-carbonitrile] | < 0.05 | 0.05 to 5 | 0.05 to 5 | 1 to 10 | 0.05 to 5 | 0.05 to 5 | 0.05 to 5 | 0.05 to 5 | – | – | – | – | – | – | – |
| CC(C)=CCn1c2c(c(=O)c3ccccc31)C(=O)n1cccc1-2 [Compound 9a, 4-(3-Methylbut-2-en-1-yl)-9H-pyrrolizino[1,2-b]quinoline-9,10(4H)-dione] | 20 to 100 | 0.05 to 5 | 0.05 to 5 | 1 to 10 | 0.05 to 5 | 0.05 to 5 | 5 to 20 | 0.05 to 5 | – | – | – | – | – | – | – |
| O=C1c2c(nc3cc(C(F)(F)F)ccc3c2OCc2ccc(Cl)cc2)-c2cccn21 [Compound 544b, 9-((4-chlorobenzyl)oxy)-6-(trifluoromethyl)-10H-pyrrolizino[1,2-b]quinolin-10-one] | 0.05 to 5 | 0.05 to 5 | 0.05 to 5 | 1 to 10 | 0.05 to 5 | 0.05 to 5 | 0.05 to 5 | 0.05 to 5 | – | – | – | – | – | – | – |
| N#Cc1ccc2c(OCc3cccc(F)c3)c3c(nc2c1)-c1cccn1C3=O [Compound 515b, 9-((3-fluorobenzyl)oxy)-10-oxo-10H-pyrrolizino[1,2-b]quinoline-6-carbonitrile] | 0.05 to 5 | 0.05 to 5 | 0.05 to 5 | 1 to 10 | 5 to 20 | 5 to 20 | 0.05 to 5 | < 0.05 | – | – | – | – | – | – | – |
| O=C1c2c(nc3ccc(F)cc3c2OCc2ccc(F)cc2)-c2cccn21 [Compound 617b, 7-fluoro-9-((4-fluorobenzyl)oxy)-10H-pyrrolizino[1,2-b]quinolin-10-one] | 0.05 to 5 | 0.05 to 5 | 0.05 to 5 | 1 to 10 | 0.05 to 5 | 0.05 to 5 | 0.05 to 5 | 0.05 to 5 | – | – | – | – | – | – | – |
| O=C1c2c(nc3ccc(F)cc3c2OCc2ccc(Cl)cc2)-c2cccn21 [Compound 618b, 9-((4-chlorobenzyl)oxy)-7-fluoro-10H-pyrrolizino[1,2-b]quinolin-10-one] | 0.05 to 5 | 0.05 to 5 | 0.05 to 5 | 1 to 10 | 0.05 to 5 | 0.05 to 5 | 0.05 to 5 | 0.05 to 5 | – | – | – | – | – | – | – |
| N#Cc1ccc2c(=O)c3c(n(Cc4ccc(F)cc4)c2c1)-c1cccn1C3=O [Compound 514a, 4-(4-Fluorobenzyl)-9,10-dioxo-4,10-dihydro-9H-pyrrolizino[1,2-b]quinoline-6-carbonitrile] | < 0.05 | 0.05 to 5 | 0.05 to 5 | 1 to 10 | 0.05 to 5 | 0.05 to 5 | 0.05 to 5 | 0.05 to 5 | – | – | – | – | – | – | – |
| O=C1c2c(nc3cc(N4CCNCC4)ccc3c2OCc2cc(C(F)(F)F)cc(C(F)(F)F)c2)-c2cccn21 [Compound 631b, 9-((3,5-bis(trifluoromethyl)benzyl)oxy)-6-(piperazin-1-yl)-10H-pyrrolizino[,2-b]quinolin-10-one] | – | – | – | 0.1 to 1 | – | – | – | – | – | – | – | – | – | – | – |
| O=C1c2c(nc3cc(N4CCNCC4)ccc3c2OCc2ccc(F)cc2F)-c2cccn21 [Compound 622b, 9-((2,4-difluorobenzyl)oxy)-6-(piperazin-1-yl)-10H-pyrrolizino[1,2-b]quinolin-10-one] | 0.05 to 5 | – | – | 1 to 10 | 0.05 to 5 | 0.05 to 5 | 0.05 to 5 | 0.05 to 5 | – | – | – | – | – | – | – |
